We go through two molecules from patent US7897636B2, “Sulfamide derivative useful for the treatment of epilepsy” (Janssen Pharmaceutica NV, priority 2007, dated 2011).

Each structure is given as a SMILES string.

The test system of the assay is MES-induced seizure. The assay can be described thus: Maximal Electroshock Test (MES), anticonvulsant activity. Format: in vivo, CF-1 male albino mice. As to the method: Anticonvulsant activity was determined using the MES test, run according to the procedure described in detail below. Swinyard E A, Woodhead J H, White H S, Franklin M R. Experimental selection, quantification, and evaluation of anticonvulsants. In Levy R H, et al., eds. Antiepileptic Drugs. 3rd ed. New York: Raven Press, 1989:85-102 CF-1 male albino mice (25-35 g) were randomly selected into control and test groups, with the animals dosed with vehicle or test compound, at varying time-points and concentrations, respectively. On the study date, the mice were dosed by intraperitoneal (i.p.) injection with vehicle (30% Solutol) or test compound (50-250 mg/kg). Seizures were induced by trans-corneal electric shock using a 60-Hz alternating current, 50 mA, delivered for 0.2 sec. The mice in the test groups were subjected to electrical stimulus at time intervals between 15 minutes and 4 hours following administration of test compound. […] The test was complete when the entire course of the convulsion has been observed (typically, less than 1 minute after electrical stimulation). […] The ED50 value of the test compounds was the calculated dose required to block the hind limb tonic-extensor component of the MES-induced seizure in 50% of the rodents tested. […] Representative compounds of the present invention were tested according to the procedure described above, with results as listed in Table 1 below. Results are listed as (number of mice with full body tonic extension prevented)/(total number of mice tested) (@ a given time). ED50 values were determined at the time of peak effect (1 hr, Table 1).
For orientation: The maximal electroshock test induces tonic seizures with an electrical stimulus.

Setting [1] is: 100 mg/kg i.p., 1.0 Hrs after dosing.
Setting [2] is: 100 mg/kg i.p., 2 Hrs after dosing.
Setting [3] is: 200 mg/kg i.p., 0.25 Hrs after dosing.
[4] abbreviates: 200 mg/kg i.p., 0.50 Hrs after dosing.
Setting [5] is: 200 mg/kg i.p., 1.0 Hrs after dosing.
Where [6] appears, read: 200 mg/kg i.p., 2 Hrs after dosing.
The mark [7] stands for this setting: 200 mg/kg i.p., 4 Hrs after dosing.

A word on the ED50: it is the midpoint of the dose-response relation. With `NS(=O)(=O)NCc1c[s+]([O-])c2ccccc12` (single isomer, unassigned; (+)) [(+)-enantiomer, N-[(1-oxidobenzo[b]thien-3-yl)methyl]-sulfamide], the “MES Activity: (number of mice with full body tonic extension prevented)/(total number of mice tested)” value (shortened to “MES Activity”) under setting [1] is given as 1/4; the “MES Activity” value under setting [2] is on record as 0/4; the “MES Activity” value under setting [3] is listed as 0/3; the “MES Activity” value under setting [4] is 4/5; the “MES Activity” value under setting [5] is given as 5/5; the “MES Activity” value under setting [6] is reported as 5/5. In addition, the “MES Activity” value under setting [7] is 1/5. Besides, the ED50 (Mus musculus, ip, 1 h, mice, i.p., at time of peak effect (1 hr), probit analysis, read-out: ED50 (dose required to block the hind limb tonic-extensor component of the MES-induced seizure in 50% of the rodents)) was determined as 127 mg/kg.
With `NS(=O)(=O)NCc1c[s+]([O-])c2ccccc12` (single isomer, unassigned; (-)) [(−)-enantiomer, N-[(1-oxidobenzo[b]thien-3-yl)methyl]-sulfamide], the “MES Activity” value is listed as 2/4 under setting [1]; 1/4 under setting [2]; 1/4 under setting [3]; 2/5 under setting [4]; 5/5 under setting [5]; 5/5 under setting [6]. Besides, the “MES Activity” value under setting [7] is listed as 1/5.
